Measured values as given in patent publication EP0056560A1, “Active antibiotic compositions, process for their manufacture and process for the antibiotic activity of antibiotics” (CIBA-GEIGY AG, priority 1981, dated 1982).

Experiments:
Test in all cases: Mouse protection test: i.p. infection, s.c. treatment with the antibiotic alone or combined with muramyl peptide, survivors counted
Type in all cases: in vivo, weisse Laboratoriums-Mäuse
Pasteurella multocida = conditions: mice infected i.p. with 0,1 x 10^4 cfu Pasteurella multocida; Cefroxadin s.c. immediately and 3 h after infection, combined with 10 mg/kg N-Acetyl-muramyl-L-alanyl-D-isoglutaminyl-L-alanyl-2-(1',2'-dipalmitoyl-sn-glycero-3'-hydroxyphosphoryloxy)-äthylamid, compared with Cefroxadin alone; survivors counted after 4 or 10 days
Source text: (§1) Die hohe antibiotische Wirkung der neuen Präparate und des neuen Verfahrens kann durch "in vivo"-Versuche nachgewiesen werden, die an verschiedenen Tierarten, insbesondere an Säugetieren, wie Mäusen, durchgeführt werden. Dazu infiziert man sie mit einer letalen oder subletalen Dosis eines pathogenen Mikroorganismus und gibt dann das genannte neue Präparat bzw. die einzelnen Dosen an Muramylpeptid und Antibiotikum. Die Wirkung wird als ED50 bestimmt, das ist diejenige Dosis, bei der 50% der Tiere überleben.
(§2) Beispiel 4: Man infiziert weisse Laboratoriums-Mäuse auf i.p. Wege mit 2 x 10^4 cfu (colony forming units) Klebsiella pneumoniae, 0,1 x 10^4 cfu Pasteurella multocida oder 40 x 10^4 cfu Salmonella typhimurium in Salzlösung, so dass 90-100Z der nicht behandelten Kontrolltiere innerhalb von 48 Stunden getötet werden. Unmittelbar, sowie 3 Stunden nach der Infektion werden Gruppen zu je 10 Mäusen mit Cefroxadin, sowohl allein (ohne Muramylpeptid) als auch in Kombination mit 10 mg/kg N-Acetyl-muramyl-L-alanyl-D-isoglutaminyl-L-alanyl-2-(1',2'-dipalmitoyl-sn-glycero-3'-hydroxyphosphoryloxy)-äthylamid behandelt, wobei dieselben zweimal in Form wässriger Lösungen oder Suspensionen auf subkutanem Weg verabreicht werden. Nach 4 bzw. 10 Tagen nach erfolgter Infektion wurden die überlebenden Tiere gezählt.

Salmonella typhimurium = conditions: mice infected i.p. with 40 x 10^4 cfu Salmonella typhimurium; Cefroxadin s.c. immediately and 3 h after infection, combined with 10 mg/kg N-Acetyl-muramyl-L-alanyl-D-isoglutaminyl-L-alanyl-2-(1',2'-dipalmitoyl-sn-glycero-3'-hydroxyphosphoryloxy)-äthylamid, compared with Cefroxadin alone; survivors counted after 4 or 10 days
Source text: as §1, §2

Klebsiella pneumoniae = conditions: mice infected i.p. with 2 x 10^4 cfu Klebsiella pneumoniae; Cefroxadin s.c. immediately and 3 h after infection, combined with 10 mg/kg N-Acetyl-muramyl-L-alanyl-D-isoglutaminyl-L-alanyl-2-(1',2'-dipalmitoyl-sn-glycero-3'-hydroxyphosphoryloxy)-äthylamid, compared with Cefroxadin alone; survivors counted after 4 or 10 days
Source text: as §1, §2

Measured: ED50-Werte für das Antibiotikum bei kombinierter Gabe mit dem Muramylpeptid

COC1=C(C(=O)O)N2C(=O)[C@@H](NC(=O)[C@H](N)C3=CCC=CC3)[C@H]2SC1 [Cefroxadin, 7ß-[D-2-amino-2-(1,4-cyclohexadienyl)-acetamido]-3-methoxy-3-cephem-4-carbonsäure]
um ein Mehrfaches niedriger: all assays above
